From patent publication US9255090B2, “Heterocyclyl derivatives and their use as prostaglandin D2 receptor modulators” (Actelion Pharmaceuticals Ltd., priority 2012, dated 2016) come the findings set out here.

The assay deals with hCRTH2 receptor (Homo sapiens (Human), UniProt Q9Y5Y4). Nature of the assay: hCRTH2 receptor membranes radioligand (3H-PGD2) displacement assay. It counts as binding. Particulars: 3H-PGD2 radioligand displacement, HEK293-hCRTH2 membranes. An outline of the steps: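 Compound was first mixed with buffer, then 3H-PGD2 was added at 2.5 nM, and the reaction was started with hCRTH2 membranes from HEK293 cells at 20 μg/well. After 90 min at room temperature, mixtures were filtered and washed with ice-cold buffer, and retained radioactivity was counted.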

SMILES strings stand for the structures.

Chain of hCRTH2 receptor (Q9Y5Y4 whole entry): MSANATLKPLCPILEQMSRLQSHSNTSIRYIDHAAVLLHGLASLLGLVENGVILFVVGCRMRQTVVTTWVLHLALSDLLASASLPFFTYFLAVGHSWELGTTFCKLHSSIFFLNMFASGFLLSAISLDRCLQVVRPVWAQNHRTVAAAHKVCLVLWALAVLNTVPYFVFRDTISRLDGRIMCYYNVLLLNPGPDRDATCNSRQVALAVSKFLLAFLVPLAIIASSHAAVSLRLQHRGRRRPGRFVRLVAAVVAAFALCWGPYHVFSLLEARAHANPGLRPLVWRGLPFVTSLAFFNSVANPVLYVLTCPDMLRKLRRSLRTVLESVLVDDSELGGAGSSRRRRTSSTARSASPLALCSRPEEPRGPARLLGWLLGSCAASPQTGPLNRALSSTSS

With `C[C@H](CC(=O)N1CCc2c(F)ccc(-c3cc(CC(=O)O)ccc3OCC(F)(F)F)c2C1)c1ccccc1` [Example 301, [3-[5-Fluoro-2-((R)-3-phenyl-butyryl)-1,2,3,4-tetrahydro-isoquinolin-8-yl]-4-(2,2,2-trifluoro-ethoxy)-phenyl]-acetic acid], the IC50 is 3.6 nM.
The same measure for `Cc1ccc(-c2cc(OCC(=O)O)ccc2Cl)c2c1CCN(C(=O)OCc1ccccc1)C2` [Example 179, 8-(5-Carboxymethoxy-2-chloro-phenyl)-5-methyl-3,4-dihydro-1H-isoquinoline-2-carboxylic acid benzyl ester]: 250 nM.
The compound `COc1ccc(CC(=O)O)cc1-c1ccc(F)c2c1CN(C(=O)[C@H](C)c1ccccc1)CC2` [Example 255, {3-[5-Fluoro-2-((R)-2-phenyl-propionyl)-1,2,3,4-tetrahydro-isoquinolin-8-yl]-4-methoxy-phenyl}-acetic acid] had an IC50 of 981 nM.
For `CCOc1cc(CC(=O)O)ccc1-c1ccc(F)c2c1CN(C(=O)CCc1ccccn1)CC2` [Example 349, {3-Ethoxy-4-[5-fluoro-2-(3-pyridin-2-yl-propionyl)-1,2,3,4-tetrahydro-isoquinolin-8-yl]-phenyl}-acetic acid], the IC50 was found to be 0.5 nM.
The same measure for `O=C(O)COc1ccc(Cl)c(-c2ccc(Cl)c3c2CN(C(=O)OCc2ccccc2)CC3)c1` [Example 178, 8-(5-Carboxymethoxy-2-chloro-phenyl)-5-chloro-3,4-dihydro-1H-isoquinoline-2-carboxylic acid benzyl ester]: 17.5 nM; for `COc1ccc(CC(=O)O)cc1-c1ccc(F)c2c1CN(C(=O)CCn1ncc3ccccc31)CC2` [Example 67, {3-[5-Fluoro-2-(3-indazol-1-yl-propionyl)-1,2,3,4-tetrahydro-isoquinolin-8-yl]-4-methoxy-phenyl}-acetic acid]: 21.6 nM; for `O=C(O)COc1ccc(-c2ccc(F)c3c2CN(C(=O)OCc2ccccc2)CC3)cc1` [Example 172, 8-(4-Carboxymethoxy-phenyl)-5-fluoro-3,4-dihydro-1H-isoquinoline-2-carboxylic acid benzyl ester]: 209 nM.
The same measure for `COc1ccc(CC(=O)O)cc1-c1ccc(F)c2c1CN(C(=O)C[C@H](C)c1ccccc1)CC2` [Example 107, {3-[5-Fluoro-2-((S)-3-phenyl-butyryl)-1,2,3,4-tetrahydro-isoquinolin-8-yl]-4-methoxy-phenyl}-acetic acid]: 18.3 nM.
In turn, `COc1ccc(CC(=O)O)cc1-c1ccc(F)c2c1CN(C(=O)C1CCc3cccc(OC)c3C1)CC2` (racemic) [Example 241] had an IC50 of 8.3 nM.
`CCOc1cc(CC(=O)O)ccc1-c1ccc(F)c2c1CN(C(=O)CC1CCc3ccccc31)CC2` (racemic) [Example 233] returned an IC50 of 1.1 nM.
The same measure for `COc1ccc(CC(=O)O)cc1-c1ccc(F)c2c1CN(C(=O)/C=C/c1cccnc1)CC2` [Example 89, {3-[5-Fluoro-2-((E)-3-pyridin-3-yl-acryloyl)-1,2,3,4-tetrahydro-isoquinolin-8-yl]-4-methoxy-phenyl}-acetic acid]: 57.2 nM.
The same measure for `COc1ccc(CC(=O)O)cc1-c1ccc(F)c2c1CN(C(=O)C1CCc3ccccc31)CC2` (racemic) [Example 112, (±)-{3-[5-Fluoro-2-(indane-1-carbonyl)-1,2,3,4-tetrahydro-isoquinolin-8-yl]-4-methoxy-phenyl}-acetic acid]: 202 nM; for `CCOc1cc(CC(=O)O)ccc1-c1ccc(F)c2c1CN(C(=O)Cc1ccccn1)CC2` [Example 342, {3-Ethoxy-4-[5-fluoro-2-(2-pyridin-2-yl-acetyl)-1,2,3,4-tetrahydro-isoquinolin-8-yl]-phenyl}-acetic acid]: 150 nM.
Take `O=C(O)COc1ccc(Cl)c(-c2cccc3c2CN(C(=O)OCc2ccccc2)CC3)c1` [Example 181, 8-(5-Carboxymethoxy-2-chloro-phenyl)-3,4-dihydro-1H-isoquinoline-2-carboxylic acid benzyl ester]: the IC50 worked out at 123 nM.
`COc1ccc(CC(=O)O)cc1-c1ccc(F)c2c1CN(C(=O)[C@@H]1C[C@H]1c1ccccc1Cl)CC2` (racemic) [Example 3, (±)-(3-{2-[trans-2-(2-Chloro-phenyl)-cyclopropanecarbonyl]-5-fluoro-1,2,3,4-tetrahydro-isoquinolin-8-yl}-4-methoxy-phenyl)-acetic acid] displayed an IC50 of 2.11 nM.
On to `Cc1ccc(CC(=O)O)cc1-c1ccc(F)c2c1CN(C(=O)OCc1ccccc1)CC2` [Example 7, 8-(5-Carboxymethyl-2-methyl-phenyl)-5-fluoro-3,4-dihydro-1H-isoquinoline-2-carboxylic acid benzyl ester], for which the IC50 was 25.6 nM.
The same measure for `CCOc1ccc(CC(=O)O)cc1-c1ccc(F)c2c1CN(C(=O)/C=C/c1ccccn1)CC2` [Example 336, {4-Ethoxy-3-[5-fluoro-2-((E)-3-pyridin-2-yl-acryloyl)-1,2,3,4-tetrahydro-isoquinolin-8-yl]-phenyl}-acetic acid]: 3.8 nM; for `COc1ccc(CC(=O)O)cc1-c1ccc(F)c2c1CN(C(=O)C1CC1)CC2` [Example 52, [3-(2-Cyclopropanecarbonyl-5-fluoro-1,2,3,4-tetrahydro-isoquinolin-8-yl)-4-methoxy-phenyl]-acetic acid]: 68.9 nM.
`CC(C)Oc1ccc(CC(=O)O)cc1-c1ccc(F)c2c1CN(C(=O)CC1COc3ccccc31)CC2` (racemic) [Example 298] returned an IC50 of 1.2 nM.
The same measure for `COc1ccc(C2(C(=O)O)CC2)cc1-c1ccc(F)c2c1CN(C(=O)[C@@H]1C[C@H]1c1ccccc1)CC2` [Example 429, 1-{3-[5-Fluoro-2-((1R,2R)-2-phenyl-cyclopropanecarbonyl)-1,2,3,4-tetrahydro-isoquinolin-8-yl]-4-methoxy-phenyl}-cyclopropanecarboxylic acid]: 50.7 nM; for `COc1ccc(C(C)C(=O)O)cc1-c1ccc(F)c2c1CN(C(=O)OCc1ccccc1F)CC2` (racemic) [Example 140, (±)-8-[5-(1-Carboxy-ethyl)-2-methoxy-phenyl]-5-fluoro-3,4-dihydro-1H-isoquinoline-2-carboxylic acid 2-fluoro-benzyl ester]: 62.6 nM.
For the compound `O=C(O)CCCOc1ccc(F)cc1-c1cccc2c1CN(C(=O)OCc1ccccc1)CC2` [Example 174, 8-[2-(3-Carboxy-propoxy)-5-fluoro-phenyl]-3,4-dihydro-1H-isoquinoline-2-carboxylic acid benzyl ester], the IC50 amounted to 289 nM. Compared with the last compound, the IC50 is about 4.6-fold higher.
`COc1ccc(CC(=O)O)cc1-c1ccc(F)c2c1CN(C(=O)CC1(c3ccccc3)CCC1)CC2` [Example 250, (3-{5-Fluoro-2-[2-(1-phenyl-cyclobutyl)-acetyl]-1,2,3,4-tetrahydro-isoquinolin-8-yl}-4-methoxy-phenyl)-acetic acid] returned an IC50 of 146 nM.
Regarding `CCOc1cc(CC(=O)O)ccc1-c1ccc(F)c2c1CN(C(=O)NCc1ccc(F)cc1)CC2` [Example 442, {3-Ethoxy-4-[5-fluoro-2-(4-fluoro-benzylcarbamoyl)-1,2,3,4-tetrahydro-isoquinolin-8-yl]-phenyl}-acetic acid], the IC50 worked out at 5.3 nM.
The same measure for `O=C(O)Cc1ccc(OCC(F)(F)F)c(-c2ccc(F)c3c2CN(C(=O)CC2COc4ccccc42)CC3)c1` (racemic) [Example 307]: 3.4 nM; for `CCOc1ccc(CC(=O)O)cc1-c1ccc(F)c2c1CN(C(=O)CCc1ccccc1F)CC2` [Example 312, (4-Ethoxy-3-{5-fluoro-2-[3-(2-fluoro-phenyl)-propionyl]-1,2,3,4-tetrahydro-isoquinolin-8-yl}-phenyl)-acetic acid]: 4.8 nM.
The same measure for `COc1ccc(CC(=O)O)cc1-c1ccc(F)c2c1CN(C(=O)COc1cccnc1)CC2` [Example 94, (3-{5-Fluoro-2-[2-(pyridin-3-yloxy)-acetyl]-1,2,3,4-tetrahydro-isoquinolin-8-yl}-4-methoxy-phenyl)-acetic acid]: 418 nM; for `O=C(O)Cc1ccc(OCC(F)(F)F)c(-c2ccc(F)c3c2CN(C(=O)CC2CCOc4ccccc42)CC3)c1` (racemic) [Example 299]: 14.8 nM.
In turn, `CCOc1ccc(CC(=O)O)cc1-c1ccc(F)c2c1CN(C(=O)OCc1ccnn1C)CC2` [Example 367, 8-(5-Carboxymethyl-2-ethoxy-phenyl)-5-fluoro-3,4-dihydro-1H-isoquinoline-2-carboxylic acid 2-methyl-2H-pyrazol-3-ylmethyl ester] came in with an IC50 of 8.8 nM.
The same measure for `COc1ccc(CC(=O)O)cc1-c1ccc(F)c2c1CN(C(=O)CCc1cccc(C)n1)CC2` [Example 92, (3-{5-Fluoro-2-[3-(6-methyl-pyridin-2-yl)-propionyl]-1,2,3,4-tetrahydro-isoquinolin-8-yl}-4-methoxy-phenyl)-acetic acid]: 15.7 nM; for `CCOc1cc(CC(=O)O)ccc1-c1ccc(F)c2c1CN(C(=O)NCCc1ccccc1)CC2` [Example 443, [3-Ethoxy-4-(5-fluoro-2-phenethylcarbamoyl-1,2,3,4-tetrahydro-isoquinolin-8-yl)-phenyl]-acetic acid]: 18.1 nM; for `O=C(O)Cc1ccc(-c2ccc(F)c3c2CN(C(=O)OCc2ccccc2)CC3)cc1Cl` [Example 40, 8-(4-Carboxymethyl-3-chloro-phenyl)-5-fluoro-3,4-dihydro-1H-isoquinoline-2-carboxylic acid benzyl ester]: 29.1 nM.
`CCOc1ccc(CC(=O)O)cc1-c1ccc(F)c2c1CN(C(=O)NCCc1ccccc1)CC2` [Example 435, [4-Ethoxy-3-(5-fluoro-2-phenethylcarbamoyl-1,2,3,4-tetrahydro-isoquinolin-8-yl)-phenyl]-acetic acid] displayed an IC50 of 2.6 nM.
With `COc1ccc(CC(=O)O)cc1-c1ccc(F)c2c1CN(C(=O)OC(C)C)CC2` [Example 143, 8-(5-Carboxymethyl-2-methoxy-phenyl)-5-fluoro-3,4-dihydro-1H-isoquinoline-2-carboxylic acid isopropyl ester], the IC50 came out at 348 nM.
